According to ChEMBL document CHEMBL3352798, “Cytotoxic vobasine, tacaman, and corynanthe-tryptamine bisindole alkaloids from Tabernaemontana and structure revision of tronoharine” (J Nat Prod, 2014):
Converted amounts (≈) assume the structure as drawn.

How the values were obtained:
Format in all cases: functional, cell-based
[1] = Cytotoxicity against vincristine-resistant human KB/VJ300 cells in presence of vincristine
KB = assay: Cytotoxicity against vincristine-sensitive human KB cells
[2] = Cytotoxicity against vincristine-resistant human KB/VJ300 cells

Row | SMILES | IC50 [1] | IC50 (KB) | IC50 [2]
1 | COC(=O)[C@@H]1[C@@H]2Cc3c([nH]c4ccccc34)C(=O)C[C@@H]1[C@@]1(CN2C)O[C@H]1C | > 25 µg/mL | 5.7 µg/mL (≈ 15.5 µM) | > 25 µg/mL
2 | C/C=C1\CN2CC[C@@]3(C(=O)Nc4ccccc43)[C@@H]2C[C@H]1C[C@@H]1NCCc2c1[nH]c1ccccc21 | 8.4 µg/mL | 20 µg/mL (≈ 44.2 µM) | > 25 µg/mL
3 | COC(=O)[C@@H]1[C@@H]2CC(=O)c3[nH]c4ccccc4c3C[C@@H]1N(C)C=C2C=O | > 25 µg/mL | 5.1 µg/mL (≈ 14.5 µM) | > 25 µg/mL
4 | COC(=O)[C@H]1[C@@H]2CC(=O)c3[nH]c4ccccc4c3C[C@@H]1N(C)C=C2C(C)=O | > 25 µg/mL | > 25 µg/mL | > 25 µg/mL
5 | C/C=C1/CN(C)[C@H]2Cc3c([nH]c4ccccc34)C(=O)C[C@H]1[C@@H]2C(=O)OC [VOBASINE] | > 25 µg/mL | > 25 µg/mL | > 25 µg/mL
6 | CC[C@@H]1CN(C)[C@H]2Cc3c([nH]c4ccccc34)C(=O)C[C@H]1[C@H]2C(=O)OC | 9.4 µg/mL | 5.5 µg/mL (≈ 15.5 µM) | > 25 µg/mL
7 | C/C=C1/CN(C)[C@H]2Cc3c([nH]c4ccccc34)C(=O)C[C@H]1[C@H]2C(=O)OC | 13.5 µg/mL | 5.6 µg/mL (≈ 15.9 µM) | 22 µg/mL (≈ 62.4 µM)
8 | CCC1=CN(C)[C@H]2Cc3c([nH]c4ccccc34)C(=O)C[C@H]1[C@@H]2C(=O)OC | > 25 µg/mL | 18.9 µg/mL (≈ 53.6 µM) | > 25 µg/mL
9 | CC[C@H]1CN(C)[C@H]2Cc3c([nH]c4ccccc34)C(=O)C[C@H]1[C@@H]2C(=O)OC | > 25 µg/mL | > 25 µg/mL | > 25 µg/mL
10 | CC[C@]1(O)C[C@H]2CN(CCc3c([nH]c4ccccc34)[C@@](C(=O)OC)(c3cc4c(cc3OC)N(C=O)[C@H]3[C@@](O)(C(=O)OC)[C@H](OC(C)=O)[C@]5(CC)C=CCN6CC[C@]43[C@@H]65)C2)C1 [VINCRISTINE] |  | 0.007 µg/mL (≈ 0.00849 µM) | 5.4 µg/mL (≈ 6.55 µM)
11 | COC(=O)[C@H]1[C@@H]2CC(=O)c3[nH]c4ccccc4c3C[C@@H]1N(C)C=C2C=O | > 25 µg/mL | > 25 µg/mL | > 25 µg/mL
12 | CC[C@@H]1CN(C)[C@H]2Cc3c([nH]c4ccccc34)C(=O)C[C@@H]1[C@H]2C(=O)OC [TABERNAEMONTANINE] | > 25 µg/mL | > 25 µg/mL | > 25 µg/mL
